Test results reported in patent publication US6608109B2, “Composition comprising L-arginine as a muscle growth stimulant and use thereof” (priority 1991, dated 2003).

Columns and labels:
[1] = Oral administration of M2 to test subjects: muscle mass and bodyfat; format: in vivo, human
Method: The above composition (identified as M2) was administered to test subjects. Those tests and the results are described in Example 2.

[2] = Oral administration of M2 / L-arginine to test subjects: side-effects and tolerance; format: in vivo, human; settings: L-arginine taken alone on an empty stomach
From the text: The subject was placed on L-Arginine M2 therapy.

With `N=C(N)NCCCC(N)C(=O)O` [L-Arginine, 2-amino-5-guanidinovaleric acid] the “Therapeutic dose for this subject” value ([1]; subject (1)) was 15 grams L-Arginine per day, the “dose required for Growth Hormone response out of pituitary gland” value ([1]; subject (2), totally empty stomach: 3+ hours) was 15-20 grams and the “disadvantages (side effects) from ingestion” value [2] was “headache, diarrhea, flatulence, depletion of electrolytes”.
